Results reported in patent US20080118591A1, “Bactericidal Formulations” (priority 2004, published 2008).

Legend:
[1] = tested on: S. aureus; test: Rapid bactericidal activity of liquid wash formulations; assay type: cell-based; settings: in formulation IV, 30 s
Method: (§1) The above formulations are supplemented with 0.9% (w/v) of the perfume composition A of example 2. A control of each formulation is left un-perfumed. The rapid bactericidal activity of these formulations is then tested as follows: • The products are diluted 1:1 in hard water as defined in the European standard EN 1276. This mimics conditions of use on wet hands or wet surfaces in commonly used water. • 500 μl of the product is mixed with 25 μl of a bacterial inoculum containing 2×10^8 cfu/ml (colony forming units). • The mixture is incubated for 30 seconds at 37° C. • 20 μl of the mixture is removed and added to 180 μl neutralising solution (containing 3 g lecithin, 30 g Tween® 80, 5 g sodium thiosulfate, 1 g histidine, 30 g saponin, 8.5 g sodium chloride, 1 g tryptone and 1000 ml water). • The mixture with neutraliser is incubated for 1 min • Serial dilutions of the mixture with neutralising solution are made, and aliquots of these are added to Petri-dishes and embedded in tryptic soy agar containing 0.5% Tween® 80 to inactivate any residual antibacterial compounds. • Bacterial numbers are counted after 24 h incubation at 37° C. and compared to control samples. • Reduction in bacterial viability is determined as described in example 1
Formulation IV of example 3 is supplemented with different concentrations of phenolic biocides and different concentrations of the perfume composition A of example 2. The reduction in viability of various test organisms is determined at different dilutions of the formulation (1:1 or 1:3 to simulate conditions of use) after 30 seconds contact time.

[2] = tested on: E. coli; test: as above; assay type: cell-based; settings: in formulation IV, 30 s
Method: as §1, with “A” for “The above formulations are supplemented with 0.9% (w/v) of the perfume composition A of example 2. A”
Formulations are tested in a dilution of 1:1 and with 30 seconds contact time to bacteria (E. coli). […]

SMILES | rapid bactericidal effect, S. aureus conc. ([1]; Biocide 0.2%, Perfume 0%) | rapid bactericidal effect, S. aureus conc. ([1]; Biocide 0.2%, Perfume 0.45%) | rapid bactericidal effect, S. aureus conc. ([1]; Biocide 0.4%, Perfume 0%) | rapid bactericidal effect, S. aureus conc. ([1]; Biocide 0.4%, Perfume 0.45%) | rapid bactericidal effect, E. coli 1:1 ([2]; Biocide 0.2%, Perfume 0%) | rapid bactericidal effect, E. coli 1:3 ([2]; Biocide 0.2%, Perfume 0%) | rapid bactericidal effect, E. coli 1:1 ([2]; Biocide 0.2%, Perfume 0.45%) | rapid bactericidal effect, E. coli 1:3 ([2]; Biocide 0.2%, Perfume 0.45%) | rapid bactericidal effect, E. coli 1:1 ([2]; Biocide 0.4%, Perfume 0%) | rapid bactericidal effect, E. coli 1:3 ([2]; Biocide 0.4%, Perfume 0%) | rapid bactericidal effect, E. coli 1:1 ([2]; Biocide 0.4%, Perfume 0.45%) | rapid bactericidal effect, E. coli 1:3 ([2]; Biocide 0.4%, Perfume 0.45%)
Oc1ccc(Cl)cc1Cc1ccccc1 [2-benzyl-4-chlorphenol] | 1 | 1 | 3 | 21 | 1 | 1 | >250 | 2 | 18 | 1 | >250 | 4
Oc1cc(Cl)ccc1Oc1ccc(Cl)cc1Cl [Triclosan, 2,4,4′-trichloro-2′-hydroxy-diphenylether] | 12 | 31 |  |  | 1 | 1 | >250 | 2 |  |  |  | 
